Experiment [1] concerns the target T1, TYK2 (JH2domain-pseudokinase) (Homo sapiens, UniProt P29597).
T1 construct: TYK2 (JH2domain-pseudokinase)-tagged T7 phage strains were prepared in an E. coli host derived from the BL21 strain; made in house; host or cells: E. coli BL21-derived host (T7 phage) or HEK-293 cells
The experiment is described as follows: TYK2 JH2 domain binding assay (KINOMEscan). Here is the method: TYK2 (JH2domain-pseudokinase) KINOMEscan assay. For the assay, TYK2 (JH2domain-pseudokinase)-tagged T7 phage strains were prepared in an E. coli host derived from the BL21 strain.E. coli were grown to log-phase and infected with T7 phage and incubated with shaking at 32°C until lysis. The lysates were centrifuged and filtered to remove cell debris. The remaining TYK2 (JH2domain-pseudokinase) were produced in HEK-293 cells and subsequently tagged with DNA for qPCR detection. Streptavidin-coated magnetic beads were treated with biotinylated small molecule ligands for 30 minutes at room temperature to generate affinity resins for kinase assays. The liganded beads were blocked with excess biotin and washed with blocking buffer (SeaBlock (Pierce), 1% BSA, 0.05% Tween 20, 1 mM DTT) to remove unbound ligand and to reduce non-specific binding. Binding reactions were assembled by combining TYK2 (JH2domain-pseudokinase), liganded affinity beads, and test compounds in 1x binding buffer (20% SeaBlock, 0.17x PBS, 0.05% Tween 20, 6 mM DTT). Test compounds were prepared as 111X stocks in 100% DMSO. Kds were determined using an 11-point 3-fold compound dilution series with three DMSO control points. All compounds for Kd measurements are distributed by acoustic transfer (non-contact dispensing) in 100% DMSO. The compounds were then diluted directly into the assays such that the final concentration of DMSO was 0.9%. All reactions performed in polypropylene 384-well plate. Each was a final volume of 0.02 ml. The assay plates were incubated at room temperature with shaking for 1 hour and the affinity beads were washed with wash buffer (1x PBS, 0.05% Tween 20). The beads were then re-suspended in elution buffer (1x PBS, 0.05% Tween 20, 0.5 µM non-biotinylated affinity ligand) and incubated at room temperature with shaking for 30 minutes. The kinase concentration in the eluates was measured by qPCR. […]
An 11-point 3-fold serial dilution of each test compound was prepared in 100% DMSO at 100x final test concentration and subsequently diluted to 1x in the assay (final DMSO concentration = 1%). Most Kds were determined using a compound top concentration = 30,000 nM. If the initial Kd determined was < 0.5 nM (the lowest concentration tested), the measurement was repeated with a serial dilution starting at a lower top concentration.
Curves were fitted using a non-linear least square fit with the Levenberg-Marquardt algorithm. […] TABLE 1: Kd Affinities for Tyk2 JH2 Domain Binding Assay.

Experiment [2] deals with STAT1/3 through TYK2/JAK1. The experiment is described as follows: IFNa induced STAT phosphorylation in HEK293 cells (SIE-bla reporter gene). It counts as cell-based. The note with it: HEK293T-sie-bla cells, IFNa at EC80, 4 hours, read-out: Inhibition of IFNa induced STAT phosphorylation HEK293 cells IC50. Here is the method:
Stimulation of HEK293T-sie-bla cells with interferon alpha (INFa) activates the signaling pathway of STAT1/3 through TYK2/JAK1. In this assay, measurement of the activity of the reporter gene […]-lactamase expression was used as the readout.
CellSensorTM SIE-bla HEK293T cell line were purchased from Thermo Fisher Scientific (ref. #K1649B) and cultured as specified by the provider. A number of 30.000 cells per well (40 µl) were plated in a 384-well plate (Corning ref.# 3712) and cultured overnight at 37°C with 5% CO2 in a complete Optimem media (ThermoFisher ref. #11058-021) containing 0.5% (v/v) heat inactivated dialyzed FBS (Life Technologies ref. #26400044), 10 µM non-essential aminoacids NEAA (Sigma ref. #M7145), 100 µM Sodium Pyruvate (Gibco ref. #11360-039) and 100 U/mL Penicillin (Sigma ref. #P0781). Compounds were initially dissolved in 100% DMSO. Compound curves were then prepared using a 1/5 serial dilution (10 dilutions). The dilutions were directly diluted in complete Optimem media at 40-fold their final concentration in 20% DMSO. IFNa initial solution (R&D systems ref. #11100-1) was prepared at 10-fold its EC80 in complete Optimem media. Compounds and IFNa were added simultaneously to the wells with cells and incubated during 4 hours at 37°C (the final DMSO was 0.1%). The […]-lactamase substrate (LifeTechnologies ref.#K1138) was prepared at 6-fold its final concentration as specified by the provider. Then 10 µL of the mixture was added to the wells to stop the stimulation. Plate was left in the dark over-night. Then a FRET reading was performed on an appropriate plate reader.
All experiments were analysed using an ExcelFit template and the four-parameter log equation. […] TABLE 2: IC50 Inhibitions of IFNa induced STAT phosphorylation in HEK293 cells

This note sets out measurements from EP4206196A1, “PYRIMIDINE SUBSTITUTED DERIVATIVES AS TYK2 INHIBITORS” (Almirall S.A., priority 2021, dated 2023).

Read-outs that look alike come from different tables or passages of the source.

T1 sequence (P29597 589-875 limits assumed): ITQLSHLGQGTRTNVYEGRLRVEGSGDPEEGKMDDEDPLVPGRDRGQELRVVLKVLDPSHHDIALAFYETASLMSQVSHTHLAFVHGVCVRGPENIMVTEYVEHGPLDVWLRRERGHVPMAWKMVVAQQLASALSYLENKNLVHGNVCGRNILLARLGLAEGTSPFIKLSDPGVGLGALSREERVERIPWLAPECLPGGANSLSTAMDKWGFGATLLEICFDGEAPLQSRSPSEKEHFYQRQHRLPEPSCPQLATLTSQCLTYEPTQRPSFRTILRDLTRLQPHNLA

In turn, `Cc1cc(Nc2cc(Nc3ccc(C4CCCOC4)cc3N(C)S(C)(=O)=O)ncn2)nc(C)n1` (stereo not shown) [Example 105, N-[2-[[6-[(2,6-dimethylpyrimidin-4-yl)amino]pyrimidin-4-yl]amino]-5-tetrahydropyran-3-yl-phenyl]-N-methyl-methanesulfonamide] had a Kd in experiment [1] below 0.2 nM. Also, in experiment [2] (Homo sapiens, HEK293), the 50% inhibitory concentration (IC50) is below 10 nM.
For `Cc1cc(Nc2cc(Nc3ccccc3S(C)(=O)=O)ncn2)nc(C)n1` [Example 11, N6-(2,6-dimethylpyrimidin-4-yl)-N4-(2-methylsulfonylphenyl)pyrimidine-4,6-diamine], in that order: 0.2 to 1 nM and 10 to 100 nM.
For `Cc1cc(Nc2cc(Nc3ncc(-c4cnn(C)c4C)cc3P(C)(C)=O)ncn2)nc(C)n1` [Example 149, N6-[3-dimethylphosphoryl-5-(1,5-dimethylpyrazol-4-yl)-2-pyridyl]-N4-(2,6-dimethylpyrimidin-4-yl)pyrimidine-4,6-diamine], in that order: below 0.2 nM and below 10 nM.
`COc1cc(F)ccc1Nc1cc(Nc2cc(C)nc(C)n2)ncn1` [Example 21, N4-(2,6-dimethylpyrimidin-4-yl)-N6-(4-fluoro-2-methoxy-phenyl)pyrimidine-4,6-diamine]: the Kd in experiment [1] is 1 to 10 nM. The IC50 in experiment [2] (Homo sapiens, HEK293) is above 1000 nM.
For `Cc1cc(Nc2cc(Nc3ncccc3C(C)(C)O)ncn2)nc(C)n1` [Example 172, 2-[2-[[6-[(2,6-dimethylpyrimidin-4-yl)amino]pyrimidin-4-yl]amino]pyridin-3-yl]propan-2-ol], in that order: 0.2 to 1 nM and 100 to 1000 nM.
For `Cc1ccc(Nc2cc(Nc3ncc(-c4cnn(C)c4C)cc3N(C)S(C)(=O)=O)ncn2)nn1` [Example 158, N-[5-(1,5-dimethylpyrazol-4-yl)-2-[[6-[(6-methylpyridazin-3-yl)amino]pyrimidin-4-yl]amino]-3-pyridyl]-N-methyl-methanesulfonamide], in that order: below 0.2 nM and 10 to 100 nM.
For `COc1cc(-c2cnn(C)c2C)c(C)nc1Nc1cc(Nc2cc(C)ncn2)ncn1` [Example 176, N6-[5-(1,5-dimethylpyrazol-4-yl)-3-methoxy-6-methyl-2-pyridyl]-N4-(6-methylpyrimidin-4-yl)pyrimidine-4,6-diamine], in that order: 0.2 to 1 nM and 10 to 100 nM.
`COc1c(Nc2cc(Nc3cc(C)nc(C)n3)ncn2)cccc1-c1cc(C(F)(F)F)nn1C` [Example 36, N6-(2,6-dimethylpyrimidin-4-yl)-N4-[2-methoxy-3-[2-methyl-5-(trifluoromethyl)pyrazol-3-yl]phenyl]pyrimidine-4,6-diamine] gave a Kd in experiment [1] of 1 to 10 nM. Further, the IC50 in experiment [2] (Homo sapiens, HEK293) is above 1000 nM.
For `COc1c(C)ccnc1Nc1cc(Nc2cc(C)nc(C)n2)ncn1` [Example 132, N4-(2,6-dimethylpyrimidin-4-yl)-N6-(3-methoxy-4-methyl-2-pyridyl)pyrimidine-4,6-diamine], in that order: 0.2 to 1 nM and 100 to 1000 nM.
For `Cc1cc(Nc2cc(Nc3nccc(C)c3S(C)(=O)=O)ncn2)nc(C)n1` [Example 150, N4-(2,6-dimethylpyrimidin-4-yl)-N6-(4-methyl-3-methylsulfonyl-2-pyridyl)pyrimidine-4,6-diamine], in that order: below 0.2 nM and below 10 nM.
Taken in the same sequence, the figures for `CN(c1ccccc1Nc1cc(Nc2ccc(C#N)cn2)ncn1)S(C)(=O)=O` [Example 102, N-[2-[[6-[(5-cyano-2-pyridyl)amino]pyrimidin-4-yl]amino]phenyl]-N-methyl-methanesulfonamide] were 0.2 to 1 nM and 10 to 100 nM.
Take `Cc1cc(Nc2cc(Nc3ccccc3N(C)S(C)(=O)=O)ncn2)ncc1F` [Example 101, N-[2-[[6-[(5-fluoro-4-methyl-2-pyridyl)amino]pyrimidin-4-yl]amino]phenyl]-N-methyl-methanesulfonamide]: in experiment [1], the equilibrium dissociation constant (Kd) was below 0.2 nM. The half-maximal inhibitory concentration (IC50) in experiment [2] (Homo sapiens, HEK293) is 10 to 100 nM.
The molecule `Cc1cc(Nc2cc(Nc3ccccc3C(C)S(C)(=O)=O)ncn2)nc(C)n1` (stereo not shown) [Example 72, N4-(2,6-dimethylpyrimidin-4-yl)-N6-[2-(1-methylsulfonylethyl)phenyl]pyrimidine-4,6-diamine] returned a Kd in experiment [1] of 1 to 10 nM. Further, the 50% inhibitory concentration (IC50) in experiment [2] (Homo sapiens, HEK293) is 100 to 1000 nM.
Taken in the same sequence, the figures for `Cc1cc(Nc2cc(Nc3ccc(-c4cn[nH]c4C)cc3N(C)S(C)(=O)=O)ncn2)nc(C)n1` [Example 89, N-[2-[[6-[(2,6-dimethylpyrimidin-4-yl)amino]pyrimidin-4-yl]amino]-5-(5-methyl-1H-pyrazol-4-yl)phenyl]-N-methyl-methanesulfonamide] were below 0.2 nM and 10 to 100 nM.
Molecule `COc1c(Nc2cc(Nc3cc(C)nc(C)n3)ncn2)cccc1-c1ccnnc1` [Example 42, N6-(2,6-dimethylpyrimidin-4-yl)-N4-(2-methoxy-3-pyridazin-4-yl-phenyl)pyrimidine-4,6-diamine] returned a dissociation constant (Kd) in experiment [1] of 1 to 10 nM. The 50% inhibitory concentration (IC50) in experiment [2] (Homo sapiens, HEK293) was above 1000 nM.
For `COc1c(Nc2cc(Nc3cc(C)nc(C)n3)ncn2)cccc1-c1nc(C)nn1C1COC1` [Example 48, N4-(2,6-dimethylpyrimidin-4-yl)-N6-[2-methoxy-3-[5-methyl-2-(oxetan-3-yl)-1,2,4-triazol-3-yl]phenyl]pyrimidine-4,6-diamine], in that order: above 10 nM and above 1000 nM.
For `Cc1cc(Nc2cc(Nc3ccc(C4=CCCOC4)cc3N(C)S(C)(=O)=O)ncn2)nc(C)n1` [Example 94, N-[5-(3,6-dihydro-2H-pyran-5-yl)-2-[[6-[(2,6-dimethylpyrimidin-4-yl)amino]pyrimidin-4-yl]amino]phenyl]-N-methyl-methanesulfonamide], in that order: below 0.2 nM and below 10 nM.
Taken in the same sequence, the figures for `COc1c(Nc2cc(Nc3cc(C)nc(C)n3)ncn2)cccc1-c1nc(C(F)(F)F)n(C)n1` [Example 29, N6-(2,6-dimethylpyrimidin-4-yl)-N4-[2-methoxy-3-[1-methyl-5-(trifluoromethyl)-1,2,4-triazol-3-yl]phenyl]pyrimidine-4,6-diamine] were 1 to 10 nM and above 1000 nM.
In the case of `Cc1cc(Nc2cc(Nc3ncc(-c4nc(C)nn4C)cc3N(C)S(C)(=O)=O)ncn2)ncn1` [Example 155, N-[5-(2,5-dimethyl-1,2,4-triazol-3-yl)-2-[[6-[(6-methylpyrimidin-4-yl)amino]pyrimidin-4-yl]amino]-3-pyridyl]-N-methyl-methanesulfonamide], the dissociation constant Kd in experiment [1] is 0.2 to 1 nM. The IC50 in experiment [2] (Homo sapiens, HEK293) lay within 100 to 1000 nM.
For “N4-(2,6-dimethylpyrimidin-4-yl)-N6-[2-ethoxy-3-(1-methyl-1,2,4-triazol-3-yl)phenyl]pyrimidine-4,6-diamine [Example 45]”, the dissociation constant Kd in experiment [1] fell in the range of 0.2 to 1 nM. The IC50 in experiment [2] is 100 to 1000 nM.
